Laboratory results from ChEMBL document CHEMBL6087476, “Positive Charge-Concentrated Dimeric Lipopeptides with Enhanced Protease Resistance: A Potential Solution for Systemic Bacterial Infections” (J Med Chem, 2025).
Values after ≈ are worked out from the molar mass of the structure shown. Active and inactive are the calls of the source. No cut-off for these calls is given here.

How the values were obtained:
[1] = system: Escherichia coli; assay: Antimicrobial activity against Escherichia coli ATCC 25922 assessed as increase in absorbance incubated for 20 to 22 hrs; type: functional; details: time 20-22 hrs
[2] = system: Escherichia coli; assay: Antimicrobial activity against Escherichia coli K88 assessed as increase in absorbance incubated for 20 to 22 hrs; type: functional; details: time 20-22 hrs
[3] = system: Salmonella typhimurium; assay: Antimicrobial activity against Salmonella typhimurium 14028 assessed as increase in absorbance incubated for 20 to 22 hrs; type: functional, Salmonella enterica subsp. enterica serovar Typhimurium; details: Salmonella enterica, time 20-22 hrs
[4] = system: Pseudomonas aeruginosa; assay: Antimicrobial activity against Pseudomonas aeruginosa 27853 assessed as increase in absorbance incubated for 20 to 22 hrs; type: functional; details: time 20-22 hrs
[5] = system: Staphylococcus aureus; assay: Antimicrobial activity against Staphylococcus aureus 29213 assessed as increase in absorbance incubated for 20 to 22 hrs; type: functional; details: time 20-22 hrs
[6] = system: HEK-293T; assay: Cytotoxicity against human HEK293T cells assessed as cell death measured after 18 to 24 hrs by MTT assay; type: functional; details: time 18-24 hrs
[7] = system: Acinetobacter baumannii; assay: Antimicrobial activity against Acinetobacter baumannii AB1901 assessed as increase in absorbance incubated for 20 to 22 hrs; type: functional; details: time 20-22 hrs
[8] = system: Pseudomonas aeruginosa; assay: Antimicrobial activity against Pseudomonas aeruginosa 25349 assessed as increase in absorbance incubated for 20 to 22 hrs; type: functional; details: time 20-22 hrs
[9] = system: Staphylococcus aureus; assay: Antimicrobial activity against Staphylococcus aureus 11011 assessed as increase in absorbance incubated for 20 to 22 hrs; type: functional; details: time 20-22 hrs
[10] = system: Escherichia coli; assay: Antimicrobial activity against Escherichia coli ATCC 25922 assessed as increase in absorbance incubated for 20 to 22 hrs in presence of Fe3+ physiological salt; type: functional, organism-based; details: time 20-22 hrs
[11] = system: Escherichia coli; assay: Antimicrobial activity against Escherichia coli ATCC 25922 assessed as increase in absorbance incubated for 20 to 22 hrs in presence of Mg2+ physiological salt; type: functional, organism-based; details: time 20-22 hrs
[12] = system: Escherichia coli; assay: Antimicrobial activity against Escherichia coli ATCC 25922 assessed as increase in absorbance incubated for 4 hrs in presence of 25% serum; type: functional, organism-based
[13] = system: Escherichia coli; assay: Antimicrobial activity against Escherichia coli ATCC 25922 assessed as increase in absorbance at 8 mg/ml incubated for 8 hrs in presence of chymotrypsin; type: functional, organism-based
[14] = target: T1, Trypsin (Homo sapiens, UniProt P07477+P07478+P35030); assay: Stability of compound assessed as trypsin (unknown origin)-mediated compound structural integrity change at 8 mg/ml incubated for 1 to 8 hrs by 16.5% tricine-SDS-PAGE analysis; type: ADME, protein assay; details: time 1-8 hrs
[15] = target: T2, Chymotrypsin (Homo sapiens, UniProt Q99895+P17538+P40313+Q6GPI1); assay: Stability of compound assessed as chymotrypsin (unknown origin)-mediated compound structural integrity change at 8 mg/ml incubated for 1 to 8 hrs by 16.5% tricine-SDS-PAGE analysis; type: ADME, protein assay; details: time 1-8 hrs
[16] = Stability of compound assessed as pepsin (unknown origin)-mediated compound structural integrity change at 8 mg/ml incubated for 1 to 8 hrs by 16.5% tricine-SDS-PAGE analysis; type: ADME; details: human, time 1-8 hrs
[17] = target: T1, Trypsin; assay: Stability of compound assessed as trypsin (unknown origin)-mediated compound structural integrity change at 8 mg/ml incubated for 1 to 8 hrs by RP-HPLC analysis; type: ADME, protein assay; details: time 1-8 hrs
[18] = target: T2, Chymotrypsin; assay: Stability of compound assessed as chymotrypsin (unknown origin)-mediated compound structural integrity change at 8 mg/ml incubated for 1 to 8 hrs by RP-HPLC analysis; type: ADME, protein assay; details: time 1-8 hrs
[19] = system: Escherichia coli; assay: Antibiofilm activity against Escherichia coli ATCC 25922 biofilm assessed as inhibition of biofilm formation at 2 uM; type: functional, organism-based
[20] = system: Escherichia coli; assay: Antimicrobial activity against Escherichia coli ATCC 25922 assessed as increase in absorbance at MIC concentration in presence of […] ug/ml Lipopolysaccharide incubated for 8 hrs; type: functional, organism-based; details: dose 64.0 µg/ml
[21] = system: Cell membrane; assay: Induction of Outer membrane permeability in Escherichia coli ATCC 25922 incubated for 30 mins by N-phenyl-1-naphthylamine (NPN) uptake assay; type: subcellular; details: dose 1-16 µM
[22] = system: Escherichia coli; assay: Inhibition of respiratory chain dehydrogenase (RCD) activity in Escherichia coli ATCC 25922 at 4 uM incubated for 90 mins by TTC assay
[23] = system: Escherichia coli; assay: Reduction in intracellular ATP level in Escherichia coli ATCC 25922 at 2 uM measured after 1 hr incubation by Enhanced ATP assay kit; type: functional; parameters: scale not given: the % may be the effect or the level left
[24] = system: Escherichia coli; assay: Induction of membrane damage in Escherichia coli ATCC 25922 assessed as damaged membrane surface by analysing leakage (hollow interiors) at 8 uM measured after 1 hr incubation by TEM analysis; type: functional, organism-based
[25] = system: Escherichia coli; assay: Induction of membrane damage in Escherichia coli ATCC 25922 assessed as ruptured membrane by analysing green fluorescence at 8 uM measured after 1 hr incubation by SYTO - live and dead staining based fluorescence microscopy; type: functional, organism-based
[26] = system: Escherichia coli; assay: Bactericidal activity against Escherichia coli ATCC 25922 assessed as reduction in bacterial viability; type: functional, organism-based
[27] = system: Escherichia coli; assay: Bactericidal activity against Escherichia coli ATCC 25922 assessed as reduction in bacterial viability at 4 uM measured within 30 mins; type: functional; details: 0.5 h
[28] = system: Escherichia coli; assay: Bactericidal activity against Escherichia coli ATCC 25922 assessed as reduction in bacterial viability at 4 uM measured within 1 hr; type: functional
[29] = system: Escherichia coli; assay: Bactericidal activity against Escherichia coli ATCC 25922 assessed as reduction in bacterial viability at 4 uM measured within 2 hrs; type: functional, organism-based
[30] = Toxicity in ICR mouse assessed as reduced mobility at 20 mg/kg, ip measured within 1 hr; type: organism-based; details: in vivo
[31] = Toxicity in ICR mouse assessed as slight manifestation of stooping at 20 mg/kg, ip measured after 1 hr; type: organism-based; details: in vivo
[32] = Toxicity in ICR mouse assessed as reduced mobility at 20 mg/kg, ip measured after 1 hr; type: organism-based; details: in vivo
[33] = Toxicity in ICR mouse assessed as body weight change at 5 to 20 mg/kg, ip measured after 3 days; type: organism-based; details: in vivo, 72 h, dose 5-20 mg/kg, time 3 day
[34] = Toxicity in ICR mouse assessed as liver weight change at 5 to 20 mg/kg, ip measured after 3 days; type: organism-based; details: in vivo, 72 h, dose 5-20 mg/kg, time 3 day
[35] = Toxicity in ICR mouse assessed as kidney weight change at 5 to 20 mg/kg, ip measured after 3 days; type: organism-based; details: in vivo, 72 h, dose 5-20 mg/kg, time 3 day
[36] = Toxicity in ICR mouse assessed as aspartate aminotransferase (AST) level in serum at 5 to 20 mg/kg, ip measured after 3 days; type: organism-based; details: in vivo, 72 h, dose 5-20 mg/kg, time 3 day
[37] = Toxicity in ICR mouse assessed as hepatic cords morphology at 5 to 20 mg/kg, ip measured after 3 days by histopathological H and E staining based assay; type: organism-based; details: in vivo, 72 h, dose 5-20 mg/kg, time 3 day
[38] = system: Escherichia coli; assay: Antibacterial activity against Escherichia coli ATCC 25922 injected intraperitoneally in ICR mouse assessed as reduction bacterial load in spleen at 10 mg/kg, ip measured after 12 hrs by H and E staining based assay; type: functional, organism-based
[39] = system: Mus musculus; assay: Anti-inflammatory activity against Escherichia coli ATCC 25922-induced peritonitis ICR mouse model assessed as decrease in IL-1 beta level in serum spleen at 10 mg/kg, ip measured after 12 hrs; type: functional, organism-based
[40] = system: Escherichia coli; assay: Antibacterial activity against Escherichia coli ATCC 25922 injected intraperitoneally in ICR mouse assessed as reduction in symptoms by measuring atrophied red medulla in spleen at 10 mg/kg, ip measured after 12 hrs by H and E staining based assay; type: functional, organism-based

**Q.** Which MIC [1] does the source give for CCCCCCCCCC(=O)NCCCC[C@H](N)C(=O)NCC(=O)NCC(=O)NCC(=O)N[C@H](CCCNC(=N)N)C(=O)N[C@@H](CCCNC(=N)N)C(=O)N[C@@H](CCCNC(=N)N)C(=O)N1CCC[C@H]1C(=O)N[C@@H](CSSC[C@H](NC(=O)[C@@H]1CCCN1C(=O)[C@H](CCCNC(=N)N)NC(=O)[C@H](CCCNC(=N)N)NC(=O)[C@@H](CCCNC(=N)N)NC(=O)CNC(=O)CNC(=O)CNC(=O)[C@@H](N)CCCCNC(=O)CCCCCCCCC)C(=O)O)C(=O)O here?
**A.** 4 µM (≈ 9.12 µg/mL)

**Q.** And the MIC [2]?
**A.** 2 µM (≈ 4.56 µg/mL)

**Q.** What about the MIC [3] of the same compound?
**A.** 4 µM (≈ 9.12 µg/mL)

**Q.** What about the MIC [4] of the same compound?
**A.** 4 µM (≈ 9.12 µg/mL)

**Q.** And the MIC [5]?
**A.** 8 µM (≈ 18.2 µg/mL)

**Q.** And the IC10 [6]?
**A.** 256 µM

**Q.** What about the MIC [7] of the same compound?
**A.** 4 µM (≈ 9.12 µg/mL)

**Q.** And the MIC [8]?
**A.** 4 µM (≈ 9.12 µg/mL)

**Q.** And the MIC [9]?
**A.** 8 µM (≈ 18.2 µg/mL)

**Q.** What about the Activity [10] of the same compound?
**A.** Active; C-C10)C-C Demonstrated Superior Physiological Salt Tolerance In Comparison To (N-C10)C-C

**Q.** And the Activity [11]?
**A.** Active; C-C10)C-C Demonstrated Superior Physiological Salt Tolerance In Comparison To (N-C10)C-C

**Q.** And the Activity [12]?
**A.** Active

**Q.** What about the Activity [13] of the same compound?
**A.** Active; Negligible Alteration In Mic Values Found

**Q.** What about the Stability [14] of the same compound?
**A.** Stable

**Q.** And the Stability [15]?
**A.** Stable

**Q.** And the Stability [16]?
**A.** Stable

**Q.** What about the Stability [17] of the same compound?
**A.** Stable

**Q.** And the Stability [18]?
**A.** Stable

**Q.** What about the Activity [19] of the same compound?
**A.** Active

**Q.** And the Activity [20]?
**A.** inactive

**Q.** What about the Activity [21] of the same compound?
**A.** Dose-dependent-effect

**Q.** What about the inhibition [22] of the same compound?
**A.** Active

**Q.** And the Activity [23]?
**A.** ~40%

**Q.** And the Activity [24]?
**A.** Active

**Q.** And the Activity [25]?
**A.** Active

**Q.** What about the Activity [26] of the same compound?
**A.** Dose-dependent-effect

**Q.** What about the Activity [27] of the same compound?
**A.** ~80%

**Q.** And the Activity [28]?
**A.** 100%

**Q.** What about the Activity [29] of the same compound?
**A.** inactive

**Q.** And the Activity [30]?
**A.** Toxic

**Q.** What about the Activity [31] of the same compound?
**A.** Non-toxic

**Q.** And the Activity [32]?
**A.** Non-toxic

**Q.** And the Activity [33]?
**A.** Non-toxic

**Q.** What about the Activity [34] of the same compound?
**A.** Non-toxic

**Q.** And the Activity [35]?
**A.** Non-toxic

**Q.** What about the Activity [36] of the same compound?
**A.** Non-toxic

**Q.** And the Activity [37]?
**A.** Non-toxic

**Q.** And the Activity [38]?
**A.** Active

**Q.** And the Activity [39]?
**A.** Active

**Q.** And the Activity [40]?
**A.** Active
